Assay [1] has as its system Ca127 cells. As to the kind of experiment: Cell viability assay, Ca127. Format: cell-based, Human. To be noted: 500 nM each, 48, 72 and 96 h. The method, then: (§1) Cell viability assays. Cytotoxicity was assessed using the Cell Titer 96 Aqueous Non-Radioactive Cell Proliferation Assay (Promega, Madison, Wis.) according to manufacturer's protocol. Absorbance values of test groups were normalized against controls (n=4).

Assay [2] has as its system EGFR signaling components in HSC3 cells. Briefly: Western blot analysis of EGFR signaling components, HSC3. Format: cell-based, Human. To be noted: 500 nM each, 6 h. An excerpt:
(§2) Immunoblotting. […] SDS-PAGE separated proteins were transferred to PVDF membrane and the membrane blocked in 5% milk.

Assay [3] concerns HSC3 cells. As to the kind of experiment: Cell viability assay, HSC3. The assay is classed as cell-based, Human. The note with it: 500 nM each, 48, 72 and 96 h. As for the experimental part:
as §1

A further assay has as its system HSC3 mouse xenografts. Briefly: OSCC mouse xenograft model (HSC3-derived tumors). Format: in vivo. The method, then:
OSCC mouse xenograft models. All studies were approved by the UTHSCSA institutional Animal Care and Use Committee. Six week-old female athymic nude mice (Harlan, Indianapolis, […].) were used in a laminar air-flow cabinet under pathogen-free conditions. Mice were provided with a 12 h light/dark schedule at controlled temperature and humidity with food and water ad libitum. Mice were acclimated for one week prior to study initiation. Mice were injected subcutaneously in the right flank with 3×10^6 HSC3 cells in 0.1 ml of sterile PBS. […] Treatments were repeated every day for a total of 14 days. Mice were monitored daily for tumor growth (using digital calipers), cachexia, and weight loss. Tumor volumes were calculated by the elliptical formula: ½ (Length×Width^2) (Jensen et al., 2008). At experimental conclusion, tumors were fixed and processed for histological analysis. Hematoxylin and eosin (H&E) staining and IHC studies were performed by the UTHSCSA Cancer Therapy and Research Center (CTRC) core pathology laboratory.

The subject of assay [4] is HSC3 cells. As to the kind of experiment: Flow cytometry cell cycle analysis (PI staining), HSC3. To be noted: 500 nM each, 30 hr. Format: cell-based, Human. An excerpt: (§3) Flow cytometry. […] Cells were harvested, fixed in 70% EtoH, treated with RNase A, and stained with propidium iodide (PI).
For orientation: Flow cytometry measures light scatter and fluorescence of single cells or particles in a stream.

The subject of assay [5] is EGFR signaling components in Ca127 cells. Briefly: Western blot analysis of EGFR signaling components, Ca127. The assay is classed as cell-based, Human. To be noted: 500 nM each, 6 h.
Description: as §2
In general terms: A western blot detects proteins with antibodies after separation by electrophoresis.

Another assay has as its system Cal27 cells. Briefly: Flow cytometry cell cycle analysis (PI staining), Cal27. The assay is classed as cell-based, Human. The note with it: 500 nM each, 30 hr.
Description: as §3

In the next assay the test system is oral cancer patients. The note with it: cited from earlier work.
Assay [6] deals with Ca127 cells. Briefly: Cell migration (IncuCyte wound-healing) assay, Ca127. The assay is classed as cell-based, Human. To be noted: 500 nM each. The method, then:
(§4) Cell migration assay. Cellular migration was performed using the IncuCyte ZOOM™ live cell image device (Essen Bioscience). After achieving cell confluence in 96-well format, the IncuCyte scratch system was used to generate simultaneous rectangular ‘wounds’ with a defined area in HSC3 and Ca127 cell layers. […] Images of cells moving within the wound area were taken by the automated Incu-Cyte system over intervals of 2 hr (HSC3) or 3 hr (Ca127). Migration was calculated as percent of cell confluence within the wound, starting at 0% confluence (i.e., no cells in the wound area). When the wound was completely filled with migrating cells, this was calculated at 100% confluence.

Assay [7] relates to HSC3 cells. As to the kind of experiment: Cell migration (IncuCyte wound-healing) assay, HSC3. Format: cell-based, Human. To be noted: 500 nM each. As for the experimental part:
as §4

“Also recorded” adds a separate entry of the source.

`COc1cc(N2CCC(N3CCN(C)CC3)CC2)ccc1Nc1ncc(Cl)c(Nc2ccccc2S(=O)(=O)C(C)C)n1` [TAE684]: the “cell growth (in words)” value in the assay on Ca127 cells [1] was “significant anti-proliferative effects”. Moreover, in assay [2], the “activation of STAT3 (p-STAT3 to total STAT3) (in words)” value is on record as “induced” and the “phospho-AKT / AKT activation (in words)” value is recorded as “significantly reduced”. The “cell growth (in words)” value in the assay on HSC3 cells [3] is on record as “significant anti-proliferative effects”. Moreover, the “tumor growth (in words)” value in the assay on HSC3 mouse xenografts (daily oral gavage for 14 days, TAE684 10 mg/kg, Gefitinib 100 mg/kg) is reported as “unaffected; also recorded: No change in tumor growth”. In addition, the mean tumor volume with HSC3 mouse xenografts (day 14, daily oral gavage, TAE684 10 mg/kg, Gefitinib 100 mg/kg, vehicle control 431 mm^3) is on record as 381 mm^3. In the assay on HSC3 cells [4], the G1 is 95.23 % of cell distribution, the G2 was 3.73 % of cell distribution, the S was 0.84 % of cell distribution and the SubG1 was 0.34 % of cell distribution. Further, in [5], the “activation of STAT3 (p-STAT3 to total STAT3) (in words)” value is “slightly induced” and the “phospho-AKT / AKT activation (in words)” value is given as “significantly decreased”. Moreover, in the assay with Cal27 cells, the G1 is 88.11 % of cell distribution, the G2 is recorded as 8.40 % of cell distribution, the S is on record as 2.25 % of cell distribution and the SubG1 is recorded as 1.68 % of cell distribution.

`C#Cc1cccc(Nc2ncnc3cc(OCCOC)c(OCCOC)cc23)c1` [Erlotinib]: in the assay on oral cancer patients (oral cancer patients with stage I disease), the response rate is on record as 10-15%. Further, in the assay with oral cancer patients (patients with stages II, III, and IV disease), the “response (in words)” value is “failed to respond entirely”.

Turning to `COc1cc2ncnc(Nc3ccc(F)c(Cl)c3)c2cc1OCCCN1CCOCC1` [Gefitinib], the “cell growth (in words)” value with Ca127 cells [1] is recorded as “significant anti-proliferative effects”. For the same compound, the “cell migration (in words)” value in the assay on Ca127 cells [6] is “significantly reduced at 9 h and remained significantly low for 48 h”. Further, in the assay with HSC3 cells [3], the “cell growth (in words)” value is listed as “significant anti-proliferative effects”. Further, the “tumor volume compared to control” value in the assay with HSC3 mouse xenografts (day 6, Gefitinib 100 mg/kg daily, oral gavage) was 57 % of control. Further, the “cell migration (in words)” value with HSC3 cells [7] was “significant reduction from 2 to 8 h”. Besides, in the assay with HSC3 cells [4], the G1 is on record as 95.60 % of cell distribution, the G2 is reported as 1.87 % of cell distribution, the S is 0.0 % of cell distribution and the SubG1 is 2.03 % of cell distribution. In the assay on Cal27 cells, the G1 is 90.79 % of cell distribution, the G2 is 4.44 % of cell distribution, the S was 2.59 % of cell distribution and the SubG1 is recorded as 2.53 % of cell distribution.

(Values after patent publication US20200157637A1, “TARGETING OF ANAPLASTIC LYMPHOMA KINASE IN SQUAMOUS CELL CARCINOMA” (BOARD OF REGENTS, THE UNIVERSITY OF TEXAS SYSTEM, priority 2017, published 2020).)
